Assay results: ChEMBL document CHEMBL1158592, “Synthesis and biological evaluation of isoflavone fatty acid esters with potential weight loss and hypolipidemic activities” (Bioorg Med Chem, 2010)
Activity calls are given as the source filed them. The calls are words filed in the database; no cut-off is given here.

How the values were obtained:
[1] = system: Rattus norvegicus; experiment: Antiobese activity in high fat diet-fed Sprague-Dawley rat assessed as body fat mass measured per 100 g of body weight at 50 mg/kg, ig administered QD for 30 days (reference value: 6.4+/-1.4 g/100 g); assay type: functional; conditions: route intragastric
[2] = system: Rattus norvegicus; experiment: Antiobese activity in high fat diet-fed Sprague-Dawley rat assessed as plasma free fatty acid level at 50 mg/kg, ig administered QD for 30 days (reference value: 785.6+/-175.8 umol/L); assay type: functional; conditions: route intragastric
[3] = system: Rattus norvegicus; experiment: Antiobese activity in high fat diet-fed Sprague-Dawley rat assessed as plasma total cholesterol level at 50 mg/kg, ig administered QD for 30 days (reference value: 1.86+/-0.31 mmol/L); assay type: functional; conditions: route intragastric
[4] = system: Rattus norvegicus; experiment: Antiobese activity in high fat diet-fed Sprague-Dawley rat assessed as plasma triglyceride level at 50 mg/kg, ig administered QD for 30 days (reference value: 1.25+/-0.23 mmol/L); assay type: functional; conditions: route intragastric
[5] = system: Rattus norvegicus; experiment: Antiobese activity in high fat diet-fed Sprague-Dawley rat assessed as body weight at 50 mg/kg, ig administered QD for 30 days (reference value: 355+/-36 g); assay type: functional; conditions: route intragastric
[6] = system: 3T3-L1; experiment: Decrease in triglyceride content in mouse 3T3L1 cells assessed as reduction of lipid droplets after 48 hrs by oil-red-O staining; assay type: functional, cell-based
[7] = system: 3T3-L1; experiment: Increase in PPARgamma mRNA levels in mouse 3T3L1 cells at 100 umol/L by RT-PCR; assay type: functional, cell-based
[8] = system: 3T3-L1; experiment: Inhibition of mouse 3T3L1 cells differentiation after 48 hrs by oil-red-O staining; assay type: functional, cell-based
[9] = system: Mus musculus; experiment: Hypolipidemic activity in high fat diet-fed C57BL/6 mouse assessed as increase in plasma HDL level at 50 mg/kg, ig administered QD for 4 weeks; assay type: functional, organism-based; design: dose 50 mg/kg
[10] = system: Mus musculus; experiment: Reduction in plasma insulin level in high fat diet-fed C57BL/6 mouse at 50 mg/kg, ig administered QD for 4 weeks; assay type: functional, organism-based; design: dose 50 mg/kg
[11] = system: Mus musculus; experiment: Hypolipidemic activity in high fat diet-fed C57BL/6 mouse assessed as decrease in plasma triglyceride level at 50 mg/kg, ig administered QD for 4 weeks; assay type: functional, organism-based; design: dose 50 mg/kg
[12] = Acute toxicity in ig dosed KM mouse by Bliss method; assay type: organism-based; conditions: in vivo, po
[13] = system: Mus musculus; experiment: Hypolipidemic activity in high fat diet-fed C57BL/6 mouse assessed as decrease in plasma LDL level at 50 mg/kg, ig administered QD for 4 weeks; assay type: functional, organism-based; design: dose 50 mg/kg
[14] = system: 3T3-L1; experiment: Inhibition of mouse 3T3L1 cells differentiation assessed as morphological changes after 48 hrs by oil-red-O staining; assay type: functional, cell-based
[15] = system: 3T3-L1; experiment: Antiproliferative activity against mouse 3T3L1 cells after 48 hrs by MTT assay; assay type: functional, cell-based
[16] = system: Mus musculus; experiment: Hypolipidemic activity in high fat diet-fed C57BL/6 mouse assessed as decrease in plasma total cholesterol level at 50 mg/kg, ig administered QD for 4 weeks; assay type: functional, organism-based; design: dose 50 mg/kg
[17] = system: Rattus norvegicus; experiment: Antiobese activity in high fat diet-fed Sprague-Dawley rat assessed as body fat mass measured per 100 g of body weight at 10 mg/kg, ig administered QD for 30 days (reference value: 6.4+/-1.4 g/100 g); assay type: functional; conditions: route intragastric
[18] = system: Rattus norvegicus; experiment: Antiobese activity in high fat diet-fed Sprague-Dawley rat assessed as plasma total cholesterol level at 10 mg/kg, ig administered QD for 30 days (reference value: 1.86+/-0.31 mmol/L); assay type: functional; conditions: route intragastric
[19] = system: Rattus norvegicus; experiment: Antiobese activity in high fat diet-fed Sprague-Dawley rat assessed as plasma free fatty acid level at 10 mg/kg, ig administered QD for 30 days (reference value: 785.6+/-175.8 umol/L); assay type: functional; conditions: route intragastric
[20] = system: Rattus norvegicus; experiment: Antiobese activity in high fat diet-fed Sprague-Dawley rat assessed as plasma triglyceride level at 10 mg/kg, ig administered QD for 30 days (reference value: 1.25+/-0.23 mmol/L); assay type: functional; conditions: route intragastric
[21] = system: Rattus norvegicus; experiment: Antiobese activity in high fat diet-fed Sprague-Dawley rat assessed as body weight at 10 mg/kg, ig administered QD for 30 days (reference value: 355+/-36 g); assay type: functional; conditions: route intragastric
[22] = system: Mus musculus; experiment: Hypolipidemic activity in high fat diet-fed C57BL/6 mouse assessed as decrease in plasma triglyceride level at 200 mg/kg, ig administered QD for 4 weeks; assay type: functional, organism-based; design: dose 200 mg/kg
[23] = system: Mus musculus; experiment: Hypolipidemic activity in high fat diet-fed C57BL/6 mouse assessed as decrease in plasma LDL level at 200 mg/kg, ig administered QD for 4 weeks; assay type: functional, organism-based; design: dose 200 mg/kg
[24] = system: Mus musculus; experiment: Hypolipidemic activity in high fat diet-fed C57BL/6 mouse assessed as increase in plasma HDL level at 200 mg/kg, ig administered QD for 4 weeks; assay type: functional, organism-based; design: dose 200 mg/kg
[25] = system: Mus musculus; experiment: Hypolipidemic activity in high fat diet-fed C57BL/6 mouse assessed as decrease in plasma total cholesterol level at 200 mg/kg, ig administered QD for 4 weeks; assay type: functional, organism-based; design: dose 200 mg/kg

| SMILES | Activity [1] [g/100 g body weight] | Activity [2] [µmol/L] | Activity [3] [mmol/L] | Activity [4] [mmol/L] | Activity [5] [g] | Activity [6] | Activity [7] | inhibition [8] | further results |
| --- | --- | --- | --- | --- | --- | --- | --- | --- | --- |
| CCCCC/C=C\C/C=C\CCCCCCCC(=O)Oc1ccc(-c2coc3cc(OC)ccc3c2=O)cc1 | 5.1 | 658.8 | 1.67 | 1.03 | 318 | – | – | – | – |
| CCCCCCCC/C=C\CCCCCCCC(=O)Oc1ccc(-c2coc3cc(OC)ccc3c2=O)cc1 | 5.6 | 696.3 | 1.65 | 1.01 | 328 | – | – | – | – |
| CCCCCCCCCCCCCCCC(=O)Oc1ccc2c(=O)c(-c3ccc(OC)cc3)coc2c1 | – | – | – | – | – | Active | inactive | Active | – |
| CCCCCCCC/C=C\CCCCCCCC(=O)Oc1ccc2c(=O)c(-c3ccc(OC)cc3)coc2c1 [OLEOYL FORMONONETIN] | 5 | 606.7 | 1.31 | 0.91 | 309 | Active | Active | Active | Activity [9]: Active; Activity [10]: Active; Activity [11]: Active; LD50 [12]: 2160 mg/kg; Activity [13]: Active; inhibition [14]: Active; Activity [15]: Active; Activity [16]: Active |
| CC(C)CC(N(C)C)C1(c2ccc(Cl)cc2)CCC1 (stereo unspecified) [SIBUTRAMINE] | – | – | – | – | – | – | – | – | Activity [17]: 4.3 g; Activity [18]: 1.32 mmol/L; Activity [19]: 609.6 µmol/L; Activity [20]: 0.97 mmol/L; Activity [21]: 301 g |
| CCCCCCCCCCCCCCCCCC(=O)Oc1ccc(-c2coc3cc(OC)ccc3c2=O)cc1 | 6 | 738.1 | 1.71 | 1.35 | 352 | – | – | – | – |
| COc1ccc(-c2coc3cc(O)ccc3c2=O)cc1 | – | – | – | – | – | – | Active | – | – |
| CCCCC/C=C\C/C=C\CCCCCCCC(=O)Oc1ccc2c(=O)c(-c3ccc(OC)cc3)coc2c1 | 4.3 | 603.8 | 1.28 | 0.99 | 307 | Active | Active | Active | – |
| CCc1ccc(CCOc2ccc(CC3SC(=O)NC3=O)cc2)nc1 (stereo unspecified) | – | – | – | – | – | – | Active | – | – |
| O=C(O[C@H]1[C@H](OC(=O)c2cccnc2)[C@@H](OC(=O)c2cccnc2)[C@H](OC(=O)c2cccnc2)[C@@H](OC(=O)c2cccnc2)[C@H]1OC(=O)c1cccnc1)c1cccnc1 | – | – | – | – | – | – | – | – | Activity [22]: Active; Activity [23]: Active; Activity [24]: Active; Activity [25]: Active |
| CCCCCCCCCCCCCCCCCC(=O)Oc1ccc2c(=O)c(-c3ccc(OC)cc3)coc2c1 | 5.4 | 730.2 | 1.57 | 1.19 | 320 | Active | inactive | Active | – |
